Experimental data as given in patent US20260355196A1, “INHIBITORS AND DEGRADERS OF PIP4K PROTEIN” (Larkspur Biosciences, Inc., priority 2023, published 2026).
Where two headings read alike, the source gives them in different places.

Molecular target: T1, PIP4K2C (Homo sapiens, UniProt Q8TBX8)
T1 sequence (Q8TBX8 1-421): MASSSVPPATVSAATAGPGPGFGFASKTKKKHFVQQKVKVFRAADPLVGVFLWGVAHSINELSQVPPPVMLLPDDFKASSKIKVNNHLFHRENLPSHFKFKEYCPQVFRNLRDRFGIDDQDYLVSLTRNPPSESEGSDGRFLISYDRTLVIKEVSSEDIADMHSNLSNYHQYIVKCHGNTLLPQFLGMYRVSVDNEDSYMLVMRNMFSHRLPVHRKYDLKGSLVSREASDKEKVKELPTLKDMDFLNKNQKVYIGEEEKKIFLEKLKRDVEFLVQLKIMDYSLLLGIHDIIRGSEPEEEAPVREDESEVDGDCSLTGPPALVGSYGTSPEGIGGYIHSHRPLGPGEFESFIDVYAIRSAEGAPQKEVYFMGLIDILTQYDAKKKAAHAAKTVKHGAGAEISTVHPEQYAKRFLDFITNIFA
Assay: HiBiT PIP4K2C degradation assay in MOLT-4 cells (endogenous PIP4K2C C-terminally tagged with HiBiT)
Assay type: cell-based
Design: untagged in primary human PBMCs and monocyte-derived dendritic cells
Settings: MOLT-4, top concentration 10 micromolar
In short: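 Endogenous PIP4K2C was C-terminally HiBiT-tagged by CRISPR-Cas9 in MOLT-4 cells, which were treated with a 10-point, 3-fold dilution series from 10 micromolar in duplicate for 24 or 6 hours at 37 C. Remaining protein was read by HiBiT lytic luminescence, and DC50 came from a Hill fit.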

[1] = 24 hours incubation, read-out: HiBIT-degradation MOLT4 PIP4k2C 24 hours DC50
[2] = read-out: HiBIT-degradation MOLT4 PIP4k2C 24 hours DC50, 24 hours incubation

| DC50 [1] [µM] | also measured | SMILES |
| --- | --- | --- |
| < 0.5 |  | O=C1CCC(Nc2ccc(N3CCC(CN4CCN(CC(=O)N[C@H]5CC[C@H](Nc6ncc(F)c(-c7cccc(-n8ccccc8=O)c7)n6)CC5)CC4)CC3)c(F)c2)C(=O)N1 (stereo partly drawn) [Compound 327, trans-2-[4-[[1-[4-[(2,6-dioxo-3-piperidyl)amino]-2-fluoro-phenyl]-4-piperidyl]methyl]piperazin-1-yl]-N-[4-[[5-fluoro-4-[3-(2-oxo-1-pyridyl)phenyl]pyrimidin-2-yl]amino]cyclohexyl]acetamide] |
|  | DC50 [2]: < 0.5 µM | O=C1CCC(Nc2ccc(C3CCN(C4CCN(CCC(=O)N[C@H]5CC[C@H](Nc6ncc(F)c(-c7cccc(-n8ccccc8=O)c7)n6)CC5)CC4)CC3)c(F)c2)C(=O)N1 (stereo partly drawn) [Compound 328, trans-3-(4-(4-((2,6-dioxopiperidin-3-yl)amino)-2-fluorophenyl)-[1,4′-bipiperidin]-1′-yl)-N-(4-((5-fluoro-4-(3-(2-oxopyridin-1(2H)-yl)phenyl)pyrimidin-2-yl)amino)cyclohexyl)propanamide] |
| 1 to 5 |  | O=C1CCC(n2c(=O)oc3cc(N4CCC(CCN5CCC(C(=O)N[C@H]6CC[C@H](Nc7ncc(F)c(-c8cccc(-n9ccccc9=O)c8)n7)CC6)CC5)CC4)ccc32)C(=O)N1 (stereo partly drawn) [Compound 329, trans-1-[2-[1-[3-(2,6-dioxo-3-piperidyl)-2-oxo-1,3-benzoxazol-6-yl]-4-piperidyl]ethyl]-N-[4-[[5-fluoro-4-[3-(2-oxo-1-pyridyl)phenyl]pyrimidin-2-yl]amino]cyclohexyl]piperidine-4-carboxamide] |
| < 0.5 |  | O=C1CCC(n2c(=O)oc3cc(N4CCC(CCN5CCC(C(=O)N6CCC(Nc7ncc(F)c(-c8cccc(-n9ccccc9=O)c8)n7)CC6)CC5)CC4)ccc32)C(=O)N1 (centres unmarked) [Compound 330, 3-[6-[4-[2-[4-[4-[[5-fluoro-4-[3-(2-oxo-1-pyridyl)phenyl]pyrimidin-2-yl]amino]piperidine-1-carbonyl]-1-piperidyl]ethyl]-1-piperidyl]-2-oxo-1,3-benzoxazol-3-yl]piperidine-2,6-dione] |
| < 0.5 |  | O=C1CCC(n2c(=O)oc3cc(C4CCN(CC(=O)N5CCC(O)(C(=O)N6CCC(Nc7ncc(F)c(-c8cccc(-n9ccccc9=O)c8)n7)CC6)CC5)CC4)ccc32)C(=O)N1 (centres unmarked) [Compound 331, 3-(6-(1-(2-(4-(4-((5-fluoro-4-(3-(2-oxopyridin-1(2H)-yl)phenyl)pyrimidin-2-yl)amino)piperidine-1-carbonyl)-4-hydroxypiperidin-1-yl)-2-oxoethyl)piperidin-4-yl)-2-oxobenzo[d]oxazol-3 (2H)-yl)piperidine-2,6-dione] |
| < 0.5 |  | Cn1c(=O)n(C2CCC(=O)NC2=O)c2ccc(C3CCN(CCC4CCN(C(=O)[C@@H]5CCC[C@H](Nc6ncc(F)c(-c7cccc(-n8ccccc8=O)c7)n6)C5)CC4)CC3)cc21 (stereo partly drawn) [Compound 335, 3-(5-(1-(2-(1-((1R,3S)-3-((5-fluoro-4-(3-(2-oxopyridin-1(2H)-yl)phenyl)pyrimidin-2-yl)amino)cyclohexane-1-carbonyl)piperidin-4-yl)ethyl)piperidin-4-yl)-3-methyl-2-oxo-2,3-dihydro-1H-benzo[d]imidazol-1-yl)piperidine-2,6-dione] |
| < 0.5 |  | O=C1CCC(n2c(=O)oc3cc(N4CCN(CC5CCN(CC(=O)N[C@H]6CC[C@H](Nc7ncc(F)c(-c8cccc(-n9ccccc9=O)c8)n7)CC6)CC5)CC4)ccc32)C(=O)N1 (stereo partly drawn) [Compound 339, trans-2-(4-((4-(3-(2,6-dioxopiperidin-3-yl)-2-oxo-2,3-dihydrobenzo[d]oxazol-6-yl)piperazin-1-yl)methyl)piperidin-1-yl)-N-(4-((5-fluoro-4-(3-(2-oxopyridin-1(2H)-yl)phenyl)pyrimidin-2-yl)amino)cyclohexyl)acetamide] |
| < 0.5 |  | O=C1CCC(n2c(=O)oc3cc(N4CCN(CC5CCN(CC(=O)N6CCC(Nc7ncc(F)c(-c8cccc(-n9ccccc9=O)c8)n7)CC6)CC5)CC4)ccc32)C(=O)N1 (centres unmarked) [Compound 340, 3-(6-(4-((1-(2-(4-((5-fluoro-4-(3-(2-oxopyridin-1(2H)-yl)phenyl)pyrimidin-2-yl)amino)piperidin-1-yl)-2-oxoethyl)piperidin-4-yl)methyl)piperazin-1-yl)-2-oxobenzo[d]oxazol-3 (2H)-yl)piperidine-2,6-dione] |
| < 0.5 |  | O=C1CCC(Nc2ccc(N3CCN(CC4CCN(CC(=O)N5CCC(Nc6ncc(F)c(-c7cccc(-n8ccccc8=O)c7)n6)CC5)CC4)CC3)c(F)c2)C(=O)N1 (centres unmarked) [Compound 341, 3-((3-fluoro-4-(4-((1-(2-(4-((5-fluoro-4-(3-(2-oxopyridin-1(2H)-yl)phenyl)pyrimidin-2-yl)amino)piperidin-1-yl)-2-oxoethyl)piperidin-4-yl)methyl)piperazin-1-yl)phenyl)amino)piperidine-2,6-dione] |
| < 0.5 |  | O=C1CCC(Nc2ccc(C3CCN(C4CCN(CCC(=O)N5CCC(Nc6ncc(F)c(-c7cccc(-n8ccccc8=O)c7)n6)CC5)CC4)CC3)c(F)c2)C(=O)N1 (centres unmarked) [Compound 343, 3-((3-fluoro-4-(1′-(3-(4-((5-fluoro-4-(3-(2-oxopyridin-1(2H)-yl)phenyl)pyrimidin-2-yl)amino)piperidin-1-yl)-3-oxopropyl)-[1,4′-bipiperidin]-4-yl)phenyl)amino)piperidine-2,6-dione] |
|  | DC50 [2]: < 0.5 µM | Cn1c(=O)n(C2CCC(=O)NC2=O)c2ccc(N3CCC(N4CCC(C(=O)N[C@H]5CC[C@H](Nc6ncc(F)c(-c7cccc(-n8ccccc8=O)c7)n6)CC5)CC4)CC3)cc21 (stereo partly drawn) [Compound 344, trans-1′-(1-(2,6-dioxopiperidin-3-yl)-3-methyl-2-oxo-2,3-dihydro-1H-benzo[d]imidazol-5-yl)-N-(4-((5-fluoro-4-(3-(2-oxopyridin-1(2H)-yl)phenyl)pyrimidin-2-yl)amino)cyclohexyl)-[1,4′-bipiperidine]-4-carboxamide] |
|  | DC50 (read-out: HiBIT-degradation MOLT4 PIP4k2C DC50 (6 hours, marked *), 6 hours of incubation time, rather than 24 hours): < 0.5 µM | O=C1CCC(Nc2ccc(C3CCN([C@H]4CC[C@H](C(=O)N[C@H]5CC[C@H](Nc6ncc(F)c(-c7cccc(-n8ccccc8=O)c7)n6)CC5)CC4)CC3)c(F)c2)C(=O)N1 (stereo partly drawn) [Compound 345, trans-4-(4-(4-((2,6-dioxopiperidin-3-yl)amino)-2-fluorophenyl)piperidin-1-yl)-N-(trans-4-((5-fluoro-4-(3-(2-oxopyridin-1(2H)-yl)phenyl)pyrimidin-2-yl)amino)cyclohexyl)cyclohexane-1-carboxamide] |
| > 5 |  | Cn1nc(N2CCC(=O)NC2=O)c2ccc(C3CCN(CC(=O)N4CCC(O)(C(=O)N5CCC(Nc6ncc(F)c(-c7cccc(-n8ccccc8=O)c7)n6)CC5)CC4)CC3)cc21 [Compound 346, 1-(6-(1-(2-(4-(4-((5-fluoro-4-(3-(2-oxopyridin-1(2H)-yl)phenyl)pyrimidin-2-yl)amino)piperidine-1-carbonyl)-4-hydroxypiperidin-1-yl)-2-oxoethyl)piperidin-4-yl)-1-methyl-1H-indazol-3-yl)dihydropyrimidine-2,4(1H,3H)-dione] |
|  | DC50 (6 hours of incubation time, rather than 24 hours, read-out: HiBIT-degradation MOLT4 PIP4k2C DC50 (6 hours, marked *)): < 0.5 µM | O=C1CCC(n2c(=O)oc3cc(C4CCN(CCC5CCN(C(=O)[C@@H]6CCC[C@H](Nc7ncc(F)c(-c8cccc(-n9ccccc9=O)c8)n7)C6)CC5)CC4)ccc32)C(=O)N1 (stereo partly drawn) [Compound 350, 3-(6-(1-(2-(1-((1R,3S)-3-((5-fluoro-4-(3-(2-oxopyridin-1(2H)-yl)phenyl)pyrimidin-2-yl)amino)cyclohexane-1-carbonyl)piperidin-4-yl)ethyl)piperidin-4-yl)-2-oxobenzo[d]oxazol-3 (2H)-yl)piperidine-2,6-dione] |
